Test results from ChEMBL document CHEMBL1145551, “Further pterocellins from the New Zealand marine bryozoan Pterocella vesiculosa” (J Nat Prod, 2008).
In brackets after ≈: the same amount, converted by molar mass. Activity calls are given as the source filed them. No cut-off for these calls is given here.

Columns and labels:
Amorphotheca resinae = assay: Antifungal activity against Cladosporium resinae; format: functional, organism-based
P388 = assay: Cytotoxicity against mouse P388 ATCC CCL 46 cells; format: functional, cell-based
Human alphaherpesvirus 1 = assay: Antiviral activity against HSV1 F ATCC VR 733 in african green monkey BSC1 cells; format: functional, organism-based; settings: BSC-1
Poliovirus 1 = assay: Antiviral activity against PV1 in african green monkey BSC1 cells; format: functional, organism-based; settings: BSC-1
[1] = Cytotoxicity against african green monkey BSC1 cells at 40 ug/disc; format: cell-based; settings: chlorocebus aethiops, bsc-1
Escherichia coli = assay: Antibacterial activity against Escherichia coli; format: functional, organism-based
Bacillus subtilis = assay: Antibacterial activity against Bacillus subtilis; format: functional
Pseudomonas aeruginosa = assay: Antibacterial activity against Pseudomonas aeruginosa; format: functional, organism-based
Candida albicans = assay: Antifungal activity against Candida albicans; format: functional, organism-based
[2] = test system: Trichophyton mentagrophytes; assay: Antifungal activity against Trichophyton mentagrophytes; format: functional, organism-based

| Compound | Activity (Amorphotheca resinae) | IC50 (P388) [µg/mL] | Activity (Human alphaherpesvirus 1) | Activity (Poliovirus 1) | Activity [1] | Activity (Escherichia coli) | MIC (Bacillus subtilis) [µg] | Activity (Pseudomonas aeruginosa) | Activity (Candida albicans) | Activity [2] |
| --- | --- | --- | --- | --- | --- | --- | --- | --- | --- | --- |
| COc1cn2c(c(Cc3c4n(cc(OC)c3=O)-c3c(ccnc3CC(C)C)C4=O)c1=O)C(=O)c1ccnc(CC(C)C)c1-2 [PTEROCELLIN F] | inactive | > 6.25 | inactive | inactive | Non-toxic | inactive | 1 | inactive | inactive | inactive |
| COc1cn2c(c(CCCCC(C)=O)c1=O)C(=O)c1ccnc(CC(C)C)c1-2 [PTEROCELLIN C] | inactive | > 6.25 | inactive | inactive | Non-toxic | inactive | 0.2 | inactive | inactive | inactive |
| COc1cn2c(cc1=O)C(=O)c1ccnc(Cc3ccccc3)c1-2 [PTEROCELLIN B] |  | 0.323 (≈ 1.01 µM) |  |  |  |  |  |  |  |  |
| COc1cn2c(c(C(C)C)c1=O)C(=O)c1ccnc(CC(C)C)c1-2 [PTEROCELLIN D] | inactive | 4.77 (≈ 14.6 µM) |  |  |  |  | 0.5 | inactive | inactive |  |
| COc1cn2c(c(-c3c4n(cc(OC)c3=O)-c3c(ccnc3CC(C)C)C4=O)c1=O)C(=O)c1ccnc(CC(C)C)c1-2 [PTEROCELLIN E] | inactive | > 6.25 | inactive | inactive | Non-toxic | inactive | 1 | inactive | inactive | inactive |
| COc1cn2c(cc1=O)C(=O)c1ccnc(CC(C)C)c1-2 [PTEROCELLIN A] |  | 0.477 (≈ 1.68 µM) |  |  |  |  |  |  |  |  |
